Source: US8512789B2, “High-potency sweetener composition with dietary fiber and compositions sweetened therewith” (The Coca-Cola Company, priority 2005, dated 2013)

Assays:
[1] = Sensory evaluation of sweetness linger by a panel of experts; type: in vivo; design: key: 0=no sweetness linger; 1=very slight sweetness linger; 2 slight sweetness linger; 3 moderate sweetness linger; 4=moderately high sweetness linger; 5 high sweetness linger
Protocol: In a particular embodiment, a panel of assessors is used to measure the reduction of sweetness linger. Briefly described, a panel of assessors (generally 8 to 12 individuals) is trained to evaluate sweetness perception and measure sweetness at several time points from when the sample is initially taken into the mouth until 3 minutes after it has been expectorated. […] A decrease in score for a time point measured after the sample has cleared the mouth indicates there has been a reduction in sweetness perception.
The panel of assessors may be trained using procedures well known to those of ordinary skill in the art. In a particular embodiment, the panel of assessors may be trained using the Spectrum™ Descriptive Analysis Method (Meilgaard et al, Sensory Evaluation Techniques, 3rd edition, Chapter 11). Desirably, the focus of training should be the recognition of and the measure of the basic tastes; specifically, sweet. […]
Sensory evaluation of the samples prepared in Example Set C was carried out under the following protocol, similar to that described hereinabove. […] Immediately upon sensing maximal sweetness, the sample was expectorated, the mouth was rinsed with water and the rate of sweetness decay (“Sweetness Linger”) was measured, where attention was focused on the sweetness 3-4 min after the water rinse. […]

[2] = Rate of dissolution of rebaudioside A polymorph and amorphous forms in H2O at 25° C.; type: physicochemical

Substance	Rate of dissolution in H2O at 25° C. [2]	Rate of dissolution in H2O at 25° C. (in words) [2]	Sweetness Linger rating ([1]; Example Set G: citric acid/potassium citrate composition equivalent to diet lemon-lime beverage, 400 ppm REBA base (sugar control 8 g/100 ml), scale 0-5, sweetness 3-4 min after water rinse)	Sweetness Linger rating ([1]; Example Set H: carbon-treated water with phosphoric acid (75%), pH 2.4-2.5, REBA base (sugar control 10 g/100 ml), scale 0-5)
rebaudioside A	–	–	5	5
rebaudioside A [Form 1]	(<0.2%/ %/60 minutes	Very low	–	–

More lines, main results first:

Rate of dissolution in H2O at 25° C. [2]	Rate of dissolution in H2O at 25° C. (in words) [2]	Substance	Sweetness Linger rating ([1]; Example Set G: citric acid/potassium citrate composition equivalent to diet lemon-lime beverage, 400 ppm REBA base (sugar control 8 g/100 ml), scale 0-5, sweetness 3-4 min after water rinse)	Sweetness Linger rating ([1]; Example Set H: carbon-treated water with phosphoric acid (75%), pH 2.4-2.5, REBA base (sugar control 10 g/100 ml), scale 0-5)
–	Intermediate	rebaudioside A [Form 2]	–	–
(>30%/ %/5 minutes	High	rebaudioside A [Form 3]	–	–
(>35%/ %/5 minutes	High	rebaudioside A [Form 4]	–	–
